Results from patent EP4775574A1, “FURAN RING-CONTAINING COMPOUND, PHARMACEUTICAL COMPOSITION THEREOF, AND USE THEREOF” (Wuhan Xirui Pharmaceutical Technology Co., Ltd, priority 2023, dated 2025).
Where two headings read alike, the source gives them in different places. Blank lines part the entries; values can stand above or below the compound they belong to.

How the values were obtained:
[1] = target: Nav1.5 (Homo sapiens, UniProt Q14524); assay: Sodium channel selectivity test, patch-clamp, Nav1.5; type: cell-based; details: read-out: Nav1.5 Inhibition rate (%)
Chain of Nav1.5 (Q14524 whole entry): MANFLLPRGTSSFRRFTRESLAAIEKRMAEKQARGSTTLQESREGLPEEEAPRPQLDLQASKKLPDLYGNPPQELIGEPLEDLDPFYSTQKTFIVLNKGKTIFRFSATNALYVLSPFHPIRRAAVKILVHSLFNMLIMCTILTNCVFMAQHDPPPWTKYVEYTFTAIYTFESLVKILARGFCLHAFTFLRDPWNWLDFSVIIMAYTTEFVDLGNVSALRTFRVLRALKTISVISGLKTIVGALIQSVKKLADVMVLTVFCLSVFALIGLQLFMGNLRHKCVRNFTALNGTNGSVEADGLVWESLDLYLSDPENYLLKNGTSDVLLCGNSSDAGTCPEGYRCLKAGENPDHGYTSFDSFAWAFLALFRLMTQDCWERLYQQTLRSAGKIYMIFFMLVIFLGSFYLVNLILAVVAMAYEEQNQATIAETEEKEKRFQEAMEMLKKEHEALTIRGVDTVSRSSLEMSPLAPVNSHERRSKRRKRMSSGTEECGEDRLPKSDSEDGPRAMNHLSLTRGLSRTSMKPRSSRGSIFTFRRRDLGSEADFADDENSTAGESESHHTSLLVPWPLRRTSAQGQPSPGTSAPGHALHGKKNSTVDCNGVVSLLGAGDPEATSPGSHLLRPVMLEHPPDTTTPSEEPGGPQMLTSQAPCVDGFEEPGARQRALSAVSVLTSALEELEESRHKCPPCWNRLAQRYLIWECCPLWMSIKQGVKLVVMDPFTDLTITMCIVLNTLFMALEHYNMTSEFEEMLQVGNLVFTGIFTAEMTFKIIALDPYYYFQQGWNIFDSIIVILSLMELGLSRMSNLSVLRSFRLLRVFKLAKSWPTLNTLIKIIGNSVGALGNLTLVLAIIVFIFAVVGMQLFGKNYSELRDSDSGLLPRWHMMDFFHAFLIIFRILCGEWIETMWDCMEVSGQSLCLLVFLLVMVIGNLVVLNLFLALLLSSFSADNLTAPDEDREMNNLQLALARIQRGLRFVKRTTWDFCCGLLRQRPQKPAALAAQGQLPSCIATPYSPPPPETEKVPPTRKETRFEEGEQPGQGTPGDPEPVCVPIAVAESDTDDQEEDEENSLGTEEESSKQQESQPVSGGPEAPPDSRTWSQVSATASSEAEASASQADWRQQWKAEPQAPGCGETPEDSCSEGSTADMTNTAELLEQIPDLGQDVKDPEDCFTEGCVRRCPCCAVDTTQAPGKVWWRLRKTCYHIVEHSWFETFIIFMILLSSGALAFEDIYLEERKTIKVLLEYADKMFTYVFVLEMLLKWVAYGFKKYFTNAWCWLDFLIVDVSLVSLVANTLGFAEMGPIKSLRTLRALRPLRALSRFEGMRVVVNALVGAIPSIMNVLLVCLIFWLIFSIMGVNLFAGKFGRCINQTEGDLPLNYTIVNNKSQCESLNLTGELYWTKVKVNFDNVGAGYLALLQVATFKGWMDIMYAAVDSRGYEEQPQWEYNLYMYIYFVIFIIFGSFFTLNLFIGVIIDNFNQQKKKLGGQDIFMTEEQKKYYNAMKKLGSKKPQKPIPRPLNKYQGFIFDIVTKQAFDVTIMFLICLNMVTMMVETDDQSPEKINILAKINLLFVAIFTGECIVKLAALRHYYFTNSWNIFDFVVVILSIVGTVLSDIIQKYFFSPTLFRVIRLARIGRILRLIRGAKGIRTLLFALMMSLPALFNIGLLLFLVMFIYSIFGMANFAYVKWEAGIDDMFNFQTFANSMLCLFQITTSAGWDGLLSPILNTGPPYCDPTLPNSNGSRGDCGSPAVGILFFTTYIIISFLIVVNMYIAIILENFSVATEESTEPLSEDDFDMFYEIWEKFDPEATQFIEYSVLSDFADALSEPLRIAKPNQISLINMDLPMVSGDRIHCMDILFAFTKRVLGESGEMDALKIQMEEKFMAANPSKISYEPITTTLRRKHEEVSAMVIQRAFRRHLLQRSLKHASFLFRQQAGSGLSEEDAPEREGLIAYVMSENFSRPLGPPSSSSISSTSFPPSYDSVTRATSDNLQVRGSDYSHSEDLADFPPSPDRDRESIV
Source text: Test Example 3: Selectivity test of the compounds of the present disclosure on sodium channels • 1. Experimental objective: The effects of the compounds on the current of the voltage-gated sodium channel (NaV) subtypes 1.1-1.7 were detected by patch-clamp technique • 2. Experimental materials and instruments • 2.1 Cell lines: CHO/HEK293 cell lines stably expressing Nav1.1-1.7 sodium channels, constructed in-house by the laboratory of Beijing ICE Bioscience Co., Ltd., (Reference: Jarvis MF, Honore P, Shieh CC, Chapman M, Joshi S, Zhang XF, Kort M, Carroll W, Marron B, Atkinson R, Thomas J, Liu D, Krambis M, Liu Y, McGaraughty S, Chu K, Roeloffs R, Zhong C, Mikusa JP, Hernandez G, Gauvin D, Wade C, Zhu C, Pai M, Scanio M, Shi L, Drizin I, Gregg R, Matulenko M, Hakeem A, Gross M, Johnson M, Marsh K, Wagoner PK, Sullivan JP, Faltynek CR, Krafte DS. A-803467, a potent and selective Nav1.8 sodium channel blocker, attenuates neuropathic and inflammatory pain in the rat. Proc Natl Acad Sci U S A. 2007 May 15;104(20):8520-5. doi: 10.1073/pnas.0611364104. Epub 2007 May 2. PMID: 17483457; PMCID: PMC1895982.), gene information Nav1.1: NM_006920; Nav1.2: NM_001040142; Nav1.3: NM_006922; Nav1.4: NM_000334; Nav1.5: NM198056; Nav1.6: NM014191; Nav1.7: […]. • 2.2 Compounds: Dissolved in DMSO, with sample concentration prepared at 30 µM. • 3. Experimental methods • 3.1 Cell culture • (1) Maintenance medium: CHO cells were cultured in HAM'S/F-12 medium containing 10% fetal bovine serum, 100 µg/mL Zeocin, and 10 µg/mL Blasticidin, under conditions of 37°C incubation temperature and 5% carbon dioxide concentration. HEK-293 cells were cultured in DMEM medium containing 10% fetal bovine serum and 800 µg/mL G418; the culture temperature was 37°C, and the carbon dioxide concentration was 5%. • (2) Cell passage: The old medium was removed, and the cells were washed once with PBS, then 1 mL of 0.25%-Trypsin-EDTA solution was added and incubated at 37°C for approximately 1.5 min. When the cells were detached from the bottom of the dish, about 5 mL of preheated complete medium at 37°C was added. […]

[2] = Pharmacokinetic determination in SD rats; type: in vivo; details: rat, po, gavage 10 mg/kg, plasma; for half-life: read-out: Half-life t1/2 (converted); for Cmax: read-out: Peak concentration Cmax; for Tmax: read-out: Time to peak Tmax
Protocol: SD rats were used as test animals to study the pharmacokinetic behavior in rat plasma after oral administration of the compound example of the present disclosure at a dose of 10 mg/kg.
Male SPF-grade SD rats, with body weight (200 ± 20) g.
Drug preparation: The drug concentration was prepared as 1 mg/mL, and the preparation solvent was Tween80 + 0.5% MC (v/v 1:99).
Male SPF-grade SD rats were administered by gavage after adaptive feeding for 3-4 days, with an administration dose of 10 mg/kg and an administration volume of 10 mL/kg.
Blood samples were collected from rats before administration (0 h) and after administration at 0.5 h, 1 h, 1.5 h, 2 h, 3 h, 4 h, 6 h, 8 h, 10 h, 12 h, and 24 h. Blood, approximately 0.2 mL, was collected by retro-orbital puncture and placed into EDTA-K2 anticoagulant tubes with labels. After blood collection, the tubes were gently and completely inverted three times to mix with the anticoagulant. The samples were then immediately placed in an ice-water bath and centrifuged at 4500 rpm for 10 min at 4°C. After centrifugation, the plasma was promptly aliquoted into EP tubes with corresponding labels and stored in a -80°C freezer.
After administration, 20 µL of rat plasma was taken and placed into a 96-deep-well plate pre-filled with 20 µL of internal standard working solution. Methanol (400 µL) as the precipitating agent was added, vortexed for 10 min, and centrifuged at 4000 rpm for 15 min. A supernatant of 200 µL was transferred into another 96-deep-well plate pre-filled with 200 µL of ultrapure water, vortexed for 5 min, and centrifuged at 4000 rpm for 3 min. A supernatant of 5 µL was taken for LC-MS/MS analysis of plasma drug concentration.
The main pharmacokinetic parameters were calculated by WinNonlin 7.0, and the pharmacokinetic experimental results of rats are shown in Table 4 below. Table 4: Pharmacokinetic experimental results of rats

SMILES: COCCOc1c([C@H]2[C@H](C(=O)Nc3ccc(F)c(C(=N)NO)c3)O[C@@](C)(C(F)(F)F)[C@H]2C)ccc(F)c1F [Example 10]
inhibition at 30 µM ([1]; human, cho/hek293 cells): 51.7%
AUC(0-t) at 24 h ([2]; in vivo, read-out: Area under the curve AUC0-t): 4650 ± 1600 ng·h/mL
half-life ([2]; in vivo): 96 ± 16.2 min
Cmax ([2]; in vivo): 1240 ± 326 ng/mL
Tmax ([2]; in vivo): 52.8 ± 15 min

SMILES: C[C@H]1[C@@H](c2ccc(F)c(F)c2OC2COC2)[C@H](C(=O)Nc2ccc(F)c(C(=N)NO)c2)O[C@@]1(C)C(F)(F)F [Example 11]
inhibition at 30 µM ([1]; cho/hek293 cells): 9.11%
AUC(0-t) ([2]; read-out: Area under the curve AUC0-t): 2080 ± 201 ng·h/mL
half-life [2]: 51 ± 4.2 min
Cmax [2]: 1040 ± 260 ng/mL
Tmax [2]: 45 ± 30 min

AUC(0-t) ([2]; male, read-out: Area under the curve AUC0-t): 608 ± 362 ng·h/mL
half-life ([2]; male): 79.2 ± 10.2 min
Cmax ([2]; male): 216 ± 124 ng/mL
Tmax ([2]; male): 37.8 ± 15 min
SMILES: COc1c([C@H]2[C@H](C(=O)Nc3ccnc(C(N)=O)c3)O[C@@](C)(C(F)(F)F)[C@H]2C)ccc(F)c1F [Reference compound, reference compound]
inhibition at 30 µM ([1]; human): 72.2%
